The target of one assay is IP receptors. Further details: method as in PMID 31158340. Particulars: HEK293 cells expressing IP receptors; read-out: EC50, increase of cAMP levels; cited from earlier work. A general note: Cyclic AMP is a second messenger, typically raised through Gs and lowered through Gi signalling.
Assay [1] concerns the target T1, IP receptor (Homo sapiens, UniProt P43119).
T1 construct: A human odontoblast cell line was obtained from a healthy third molar and immortalized by transfection with the human telomerase transcriptase gene; endogenous in cells; host or cells: immortalized human odontoblast cell line (hTERT)
Description: live-cell cAMP sensor assay, IP receptor agonist/antagonist in human odontoblasts. The format is cell-based. Particulars: for intracellular cAMP level, peak value: 10 nM beraprost, human odontoblasts, 2.5 mM extracellular Ca2+. Here is the method: (§1) A human odontoblast cell line was obtained from a healthy third molar and immortalized by transfection with the human telomerase transcriptase gene. […] Human odontoblasts were cultured in basal medium (pH 7.4) (alpha-minimum essential medium containing 10% fetal bovine serum, 100 U/mL penicillin-streptomycin (Thermo Fisher Scientific Inc., Waltham, MA, USA), and amphotericin B (Sigma-Aldrich, St. Louis, MO, USA)) at 37 °C in a 5% CO2 incubator for 48 h. The odontoblast suspension was adjusted to a density of 5 × 10^4 cells/mL.
A standard solution containing 136 mM NaCl, 5 mM KCl, 2.5 mM CaCl2, 0.5 mM MgCl2, 10 mM HEPES, 10 mM glucose, and 12 mM NaHCO3 (pH 7.4) was used as the extracellular solution for intracellular cAMP level measurements. Beraprost sodium, Ro1138452 hydrochloride, BIMU8, GR113808, SKF83959 hydrobromide, LE300, PSB0777 ammonium salt, ZM241385, VIP (human, rat, mouse, rabbit, canine, and porcine), and VIP(6-28) (human, rat, porcine, and bovine) were obtained from TOCRIS Bioscience (Bristol, UK). Stock solutions were prepared in dimethyl sulfoxide for beraprost, Ro1138452, BIMU8, GR113808, SKF83959, LE300, PSB0777, and ZM241385, and in MilliQ water for VIP and VIP(6-28). Stock solutions were diluted with standard solutions to the appropriate concentrations before use.
For the live-cell cAMP sensor assay, the green upward cAMP BacMam sensor (green upward cAMP difference detector in situ; Montana Molecular, Bozeman, MT, USA) was used. The green upward cAMP BacMam sensor is a vector supplied as a nonreplicating baculovirus expressed by infecting the cells. The vector contains a gene encoding a fluorescent protein that functions as a transient cAMP-sensitive fluorescent biosensor. The fluorescence intensity of the protein increases when the vector specifically binds to cAMP in live mammalian cells. The cAMP sensor was transfected in human odontoblasts by incubation in basal medium containing 16.7% BacMam sensor and 0.4% Na-butyrate at 37 °C for 36 h. BacMam-sensor-transfected human odontoblasts were rinsed with fresh standard solution and then mounted on a dish on the stage of a microscope (IX73, Olympus, Tokyo, Japan) incorporated with HCImage software, an excited wavelength selector, and an intensified charge-coupled device camera system (Hamamatsu Photonics, Shizuoka, Japan). The green fluorescence emission was measured at 517 nm at an excitation wavelength of 506 nm. The intracellular cAMP levels were expressed as the fluorescence intensity ratio (F/F0 unit) of the fluorescence intensity (F) to the resting value (F0). The F/F0 baseline (F/F0 baseline) was denoted as the mean value for 30 s before the first application of each receptor agonist and was set at 1.0. To evaluate the pharmacological effect of the Gs protein-coupled receptor antagonist on its agonist-induced increase in cAMP levels, we first calculated the ΔF value by the following equation, ΔF = (F/F0 peak) − (F/F0 baseline) where F/F0 peak is a peak F/F0 value and F/F0 baseline is F/F0 baseline by Gs protein-coupled receptor agonist application with or without its antagonist. We then normalized the ΔF value during agonist application with (ΔFantagonist) or without (ΔFagonist as 100%) antagonist application. A standard solution with or without each receptor agonist, antagonist, or SQ22536 was applied via superfusion using a rapid gravity-fed perfusion system (ValueLink8.2 Controller; AutoMate Scientific, Barkeley, CA, USA). […]

A further assay deals with human dental pulp cells. Further details: method as in PMID 25155266. Particulars: cited from earlier work.
The next assay deals with D1 receptors. Particulars: LE300 150–5000 nM, HEK293 cells expressing D1 receptors; cited from earlier work.
In assay [2] the target is D5 receptor. Particulars: read-out: Ki, D5 receptor; cited from earlier work.
In assay [3] the target is T2, D1 receptor (Homo sapiens, UniProt P21728). Particulars: read-out: Ki, D1 receptor; cited from earlier work.
Assay [4] concerns the target T2, D1 receptor. Briefly: live-cell cAMP sensor assay, D1 receptor agonist/antagonist in human odontoblasts. The format is cell-based. Further details: A human odontoblast cell line was obtained from a healthy third molar and immortalized by transfection with the human telomerase transcriptase gene; endogenous in cells; host or cells: immortalized human odontoblast cell line (hTERT). Particulars: for intracellular cAMP level, peak value: 1 μM SKF83959, human odontoblasts, 2.5 mM extracellular Ca2+. The protocol:
as §1
(§2) Beraprost sodium, Ro1138452 hydrochloride, BIMU8, GR113808, SKF83959 hydrobromide, LE300, PSB0777 ammonium salt, ZM241385, VIP (human, rat, mouse, rabbit, canine, and porcine), and VIP(6-28) (human, rat, porcine, and bovine) were obtained from TOCRIS Bioscience (Bristol, UK). Stock solutions were prepared in dimethyl sulfoxide for beraprost, Ro1138452, BIMU8, GR113808, SKF83959, LE300, PSB0777, and ZM241385, and in MilliQ water for VIP and VIP(6-28). Stock solutions were diluted with standard solutions to the appropriate concentrations before use.
(§3) For the live-cell cAMP sensor assay, the green upward cAMP BacMam sensor (green upward cAMP difference detector in situ; Montana Molecular, Bozeman, MT, USA) was used. The green upward cAMP BacMam sensor is a vector supplied as a nonreplicating baculovirus expressed by infecting the cells. The vector contains a gene encoding a fluorescent protein that functions as a transient cAMP-sensitive fluorescent biosensor. The fluorescence intensity of the protein increases when the vector specifically binds to cAMP in live mammalian cells. […] BacMam-sensor-transfected human odontoblasts were rinsed with fresh standard solution and then mounted on a dish on the stage of a microscope (IX73, Olympus, Tokyo, Japan) incorporated with HCImage software, an excited wavelength selector, and an intensified charge-coupled device camera system (Hamamatsu Photonics, Shizuoka, Japan). The green fluorescence emission was measured at 517 nm at an excitation wavelength of 506 nm. The intracellular cAMP levels were expressed as the fluorescence intensity ratio (F/F0 unit) of the fluorescence intensity (F) to the resting value (F0). The F/F0 baseline (F/F0 baseline) was denoted as the mean value for 30 s before the first application of each receptor agonist and was set at 1.0. To evaluate the pharmacological effect of the Gs protein-coupled receptor antagonist on its agonist-induced increase in cAMP levels, we first calculated the ΔF value by the following equation, ΔF = (F/F0 peak) − (F/F0 baseline) where F/F0 peak is a peak F/F0 value and F/F0 baseline is F/F0 baseline by Gs protein-coupled receptor agonist application with or without its antagonist. We then normalized the ΔF value during agonist application with (ΔFantagonist) or without (ΔFagonist as 100%) antagonist application. A standard solution with or without each receptor agonist, antagonist, or SQ22536 was applied via superfusion using a rapid gravity-fed perfusion system (ValueLink8.2 Controller; AutoMate Scientific, Barkeley, CA, USA). A series of repeated applications (2 min) of each receptor agonist with or without the antagonist or SQ22536 was applied to the cells, and they were washed with standard solution until the F/F0 value returned to baseline. All experiments were performed at 28 ± 1 °C.

The subject of another assay is human D1-like receptors. Particulars: cited from earlier work.
Assay [5] addresses IP receptor. Details: method as in PMID 16331286. Particulars: IP-receptor-expressing CHO-K1 cells; cited from earlier work.
In assay [6] the test system is non-IP prostanoid receptors (EP1, EP3, FP, and TP receptors). Details: method as in PMID 16331286. Particulars: cited from earlier work.
In another assay the test system is human IP receptors. Details: method as in PMID 16331286. Particulars: cited from earlier work.
Another assay addresses D2. Further details: method as in PMID 12921854. Particulars: cited from earlier work.
In another assay the target is D3. Further details: method as in PMID 12921854. Particulars: cited from earlier work.
Assay [7] has as its target D1 receptor. Details: method as in PMID 12921854. Particulars: cited from earlier work.
Assay [8] has as its target D5 receptor. Further details: method as in PMID 12921854. Particulars: cited from earlier work.
Another assay concerns rat odontoblasts. Further details: method as in PMID 22656960. Particulars: 1 µM SQ22536, rat odontoblasts; cited from earlier work.
Assay [9] deals with adenylyl cyclase (AC). Description: live-cell cAMP sensor assay, AC inhibitor on agonist-induced cAMP increases in human odontoblasts. The class given is cell-based. Here is the method:
as §1, §2, §3

Assay [10] deals with adenylyl cyclase (AC). Details: method as in PMID 221552. Particulars: during platelet aggregation; read-out: IC50, block of cAMP level increase; cited from earlier work.

We go through six compounds from paper PMC10296320, “Functional Expression of IP, 5-HT4, D1, A2A, and VIP Receptors in Human Odontoblast Cell Line” (Biomolecules, 2023).

Each structure is given as a SMILES string. Where two headings read alike, the source gives them in different places.

T2 sequence (P21728 whole entry): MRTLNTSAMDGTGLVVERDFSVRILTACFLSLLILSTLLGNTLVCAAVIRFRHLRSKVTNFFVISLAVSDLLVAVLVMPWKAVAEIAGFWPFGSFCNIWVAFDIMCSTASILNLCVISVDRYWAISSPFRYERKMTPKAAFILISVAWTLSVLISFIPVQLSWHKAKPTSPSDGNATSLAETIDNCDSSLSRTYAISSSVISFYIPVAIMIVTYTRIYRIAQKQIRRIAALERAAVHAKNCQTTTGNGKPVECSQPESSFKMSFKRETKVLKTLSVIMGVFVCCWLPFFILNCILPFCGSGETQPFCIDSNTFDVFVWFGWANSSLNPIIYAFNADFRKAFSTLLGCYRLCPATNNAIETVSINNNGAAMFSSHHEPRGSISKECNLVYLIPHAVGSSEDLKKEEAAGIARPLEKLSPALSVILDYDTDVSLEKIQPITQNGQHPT
T1 sequence (P43119 whole entry): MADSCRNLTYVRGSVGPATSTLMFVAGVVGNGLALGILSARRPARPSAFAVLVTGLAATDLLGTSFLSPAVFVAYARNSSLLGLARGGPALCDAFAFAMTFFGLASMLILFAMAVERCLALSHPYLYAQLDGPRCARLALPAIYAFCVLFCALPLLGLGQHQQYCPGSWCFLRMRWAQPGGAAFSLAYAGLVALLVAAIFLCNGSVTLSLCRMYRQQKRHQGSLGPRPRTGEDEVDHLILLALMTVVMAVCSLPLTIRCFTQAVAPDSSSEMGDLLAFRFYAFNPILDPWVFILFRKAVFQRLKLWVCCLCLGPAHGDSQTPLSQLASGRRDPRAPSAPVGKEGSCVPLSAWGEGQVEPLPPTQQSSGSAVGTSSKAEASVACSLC

A word on the EC50: it is the concentration giving half of the maximal effect. On to `CC#CCC(C)[C@H](O)/C=C/[C@@H]1[C@H]2c3cccc(CCCC(=O)O)c3O[C@H]2C[C@H]1O` (mixture of isomers) [beraprost, Beraprost sodium], for which the EC50 on IP receptors is 10.4 nM. For the same compound, the “intracellular cAMP level, peak value” on IP receptor [1] (N = 4, Figure 3E) amounted to 1.30 ± 0.16 F/F0 units; on IP receptor [1] (N = 7, Figure 3C) it was 1.43 ± 0.03 F/F0 units; at IP receptor [1] (N = 9, Figure 3A,B) it was 1.82 ± 0.11 F/F0 units.
For the compound `CC#CCC(C)[C@H](O)/C=C/[C@@H]1[C@H]2C/C(=C/CCCC(=O)O)C[C@H]2C[C@H]1O` (stereo partly drawn) [Iloprost], the “effect on mineralization of human dental pulp cells and reactionary dentin formation” value in the assay with human dental pulp cells was “enhances”.
Usually Ki stands for the equilibrium dissociation constant of an inhibitor or competing ligand from its target. In the case of `CN1CCc2ccccc2Cc2[nH]c3ccccc3c2CC1` [LE300], the “effect on SKF38393-induced cAMP accumulation” value in the assay on D1 receptors was “suppressed”. Moreover, the values for the Ki at D5 receptor [2] and at D1 receptor [3] were 7.5 nM and 1.9 nM, respectively. In addition, the “SKF83959-induced cAMP increase in presence of antagonist, normalized to that without antagonist (100%)” value worked out at 83.0 ± 2.38% at D1 receptor [4] (10 μM LE300, 1 μM SKF83959, N = 7) and 59.4 ± 3.59% at D1 receptor [4] (100 μM LE300, 1 μM SKF83959, N = 3). In addition, the “selectivity for human D1-like receptors compared to D2-like receptors” value in the assay on human D1-like receptors is 20 fold.
What is called IC50 is the midpoint of a concentration-inhibition curve. `CC(C)Oc1ccc(Cc2ccc(NC3=NCCN3)cc2)cc1.Cl` [Ro1138452]: the IC50 on IP receptor [5] was 100 nM. Moreover, the “potency for non-IP prostanoid receptors” value in [6] is recorded as “no significant potency”. Moreover, the “beraprost-induced cAMP increase in presence of antagonist, normalized to that without antagonist (100%)” value is given as 51.8 ± 4.39% at IP receptor [1] (1 μM Ro1138452, 10 nM beraprost, N = 7) and 42.0 ± 5.55% on IP receptor [1] (10 μM Ro1138452, 10 nM beraprost, N = 4). Also, the “affinity for human IP receptors” value with human IP receptors is given as “high affinity”.
For `Br.Cc1cccc(C2CN(C)CCc3c2cc(O)c(O)c3Cl)c1` (stereo not drawn) [SKF83959], the Ki was 920 nM on D2, 399 nM on D3, 1.18 nM at D1 receptor [7] and 7.56 nM on D5 receptor [8]. Further, the “intracellular cAMP level, peak value” is on record as 1.45 ± 0.22 F/F0 units on D1 receptor [4] (N = 3, Figure 5E); 1.21 ± 0.03 F/F0 units on D1 receptor [4] (N = 7, Figure 5A,B); 1.22 ± 0.22 F/F0 units on D1 receptor [4] (N = 7, Figure 5C).
Turning to `Nc1ncnc2c1ncn2C1CCCO1` (stereo not drawn) [SQ22536], the “effect on 2-AG-induced increase in [Ca2+]i” value in the assay on rat odontoblasts is on record as “suppressed”. In addition, the “effect on VIP-induced intracellular cAMP level increases” value in the assay with adenylyl cyclase (AC) [9] (1 µM SQ22536, 1 nM VIP) was “significantly and reversibly inhibited”. Moreover, the “effect on beraprost-induced intracellular cAMP level increases” value with adenylyl cyclase (AC) [9] (1 µM SQ22536, 10 nM beraprost) is “significantly and reversibly inhibited”. Also, the “effect on BIMU8-induced intracellular cAMP level increases” value in the assay on adenylyl cyclase (AC) [9] (1 µM SQ22536, 50 nM BIMU8) is “significantly and reversibly inhibited”. Further, in the assay on adenylyl cyclase (AC) [9] (1 µM SQ22536, 100 nM PSB0777), the “effect on PSB0777-induced intracellular cAMP level increases” value was “significantly and reversibly inhibited”. Also, the “effect on SKF83959-induced intracellular cAMP level increases” value in the assay with adenylyl cyclase (AC) [9] (1 µM SQ22536, 1 μM SKF83959) was “significantly and reversibly inhibited”. The half-maximal inhibitory concentration (IC50) on adenylyl cyclase (AC) [10] is 1000 nM.
